In one assay the target is KRas G12D mutant protein (Homo sapiens (Human), UniProt P01116, G12D). Kind of assay: Ras GTP binding domain inhibition assay (labeled GTP). The following applies: at 20 μM; read-out: KRas G12D % Inh.
For assay [1], the target named is KRas G12D/Q61H double mutant (Homo sapiens (Human), UniProt P01116, G12D/Q61H). The assay is described as above. Particulars: at 20 μM; read-out: KRas G12D Q61H % Inh. The method, boiled down: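 His-tagged KRas protein (3-10 μg/ml) was captured overnight at 4° C on nickel-coated wells in 50 mM Tris pH 7.5, 1 mM MgCl2, 1 mM DTT. Bound labeled GTP was read by fluorescence after washing.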
Chain of KRas G12D/Q61H double mutant (P01116-2 other isoform, or with tags, fused parts or gaps G12D/Q61H): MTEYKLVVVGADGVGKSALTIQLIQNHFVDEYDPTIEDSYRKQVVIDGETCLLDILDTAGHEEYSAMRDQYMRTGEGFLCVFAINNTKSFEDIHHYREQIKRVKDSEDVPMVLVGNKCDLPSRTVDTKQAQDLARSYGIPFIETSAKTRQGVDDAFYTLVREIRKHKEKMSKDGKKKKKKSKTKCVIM

The next assay has as its target Rac-1 (Homo sapiens (Human), UniProt P63000). In words: Rac inhibition assay (labeled GTP). Particulars: read-out: Rac-1 % Inh. The assay is classed as binding.
A further assay addresses Rho-A (Homo sapiens (Human), UniProt P61586). Kind of assay: Rho inhibition assay (labeled GTP). The assay is classed as binding. The following applies: read-out: Rho-A % Inh.

Each structure is given as a SMILES string.

Chain of KRas G12D mutant protein (P01116-2 other isoform, or with tags, fused parts or gaps G12D): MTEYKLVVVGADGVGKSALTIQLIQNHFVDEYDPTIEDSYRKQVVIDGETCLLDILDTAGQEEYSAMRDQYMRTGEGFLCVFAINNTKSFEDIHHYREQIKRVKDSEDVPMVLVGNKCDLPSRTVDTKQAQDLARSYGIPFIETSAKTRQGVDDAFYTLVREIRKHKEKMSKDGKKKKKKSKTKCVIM
Chain of Rho-A (P61586 whole entry): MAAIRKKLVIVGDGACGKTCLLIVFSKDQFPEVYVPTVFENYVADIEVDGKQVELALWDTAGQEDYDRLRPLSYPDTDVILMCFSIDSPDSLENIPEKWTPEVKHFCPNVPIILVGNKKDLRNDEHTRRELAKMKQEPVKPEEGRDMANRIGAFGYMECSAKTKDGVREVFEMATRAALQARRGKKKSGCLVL

With `Oc1nc(-c2ccccn2)nc2c(-c3cccc(C(F)(F)F)c3)csc12` [drawing 3745], the inhibition at 20 µM lay within 51 to 75% at KRas G12D mutant protein, 25 to 50% in assay [1], 51 to 75% on Rac-1 and 25 to 50% at Rho-A.

Regarding `Oc1nc(-c2ccccn2)nc2c(CC3CCNC3)csc12` (stereo not drawn) [drawing 3844], the inhibition at 20 µM at KRas G12D mutant protein fell in the range of 51 to 75%; in assay [1] it was 51 to 75%; on Rac-1, 76 to 100%; at Rho-A, 76 to 100%.

Take `O=C(O)c1cc2nc(-c3ccccn3)nc(O)c2s1` [drawing 3722]: the inhibition at 20 µM is 51 to 75% at KRas G12D mutant protein, 51 to 75% in assay [1], 76 to 100% on Rac-1 and 76 to 100% at Rho-A.

Consider `N#Cc1ccc(COCC(=O)Nc2nc(-c3ccccn3)nc3sccc23)cc1` [drawing 3688], for which the inhibition at 20 µM on KRas G12D mutant protein lay within 76 to 100%; in assay [1], 25 to 50%; on Rac-1 it was 76 to 100%; on Rho-A, 76 to 100%.

Regarding `O=c1[nH]c(-c2ccccn2)nc2c([C@@H]3O[C@H](CO)[C@@H](O)[C@H]3O)csc12` [drawing 3845], the inhibition at 20 µM at KRas G12D mutant protein was in the range of 25 to 50%; in assay [1], 25 to 50%; at Rac-1, 51 to 75%; on Rho-A, 51 to 75%.

In the case of `Cc1sc2c(O)nc(-c3ccccn3)nc2c1-c1ccccc1` [drawing 3777], the inhibition at 20 µM (at KRas G12D mutant protein; in assay [1]; on Rac-1; on Rho-A) was 51 to 75% throughout.

As to `Oc1nc(-c2ccccn2)nc2cc(-c3ccncc3)sc12` [drawing 3879], the inhibition at 20 µM on KRas G12D mutant protein lay in the range of 51 to 75%; in assay [1] it was 51 to 75%; at Rac-1, 25 to 50%; at Rho-A, 51 to 75%.

On to `Cc1cnc(-c2ccccn2)nc1NC(=O)Cc1ccc2cnccc2c1` [drawing 3728], for which the inhibition at 20 µM at KRas G12D mutant protein lay within 51 to 75%; in assay [1], 51 to 75%; at Rac-1, 76 to 100%; at Rho-A, 76 to 100%.

`Oc1nc(-c2ccccn2)nc2c(C3CCCC3)csc12` [drawing 3814]: the inhibition at 20 µM on KRas G12D mutant protein fell in the range of 51 to 75%; in assay [1], 51 to 75%; at Rac-1, 76 to 100%; at Rho-A, 76 to 100%.

With `CC(C)Oc1ccc(-c2c(-c3ccccc3)sc3c(O)nc(-c4nccn4C)nc23)cc1F` [drawing 3929], the inhibition at 20 µM at KRas G12D mutant protein fell in the range of 25 to 50%; at Rac-1, 51 to 75%; at Rho-A it was 25 to 50%.

Consider `Cn1ccnc1-c1nc(O)c2scc(-c3cccc(C(F)(F)F)c3)c2n1` [drawing 3916], for which the inhibition at 20 µM at KRas G12D mutant protein was 25 to 50%; at Rac-1, 51 to 75%; at Rho-A, 25 to 50%.

Turning to `COc1nc(-c2ccccn2)nc(Oc2cccc(C(F)(F)F)c2)c1O` [drawing 3883], the inhibition at 20 µM on KRas G12D mutant protein lay in the range of 51 to 75%; at Rac-1, 76 to 100%; on Rho-A it was 1 to 25%.

As to `COCCNc1nc(-c2nccn2C)nc2sc(-c3ccncc3)c(-c3ccccc3)c12` [drawing 3900], the inhibition at 20 µM at KRas G12D mutant protein, on Rac-1 and on Rho-A was 51 to 75% in each case.

In the case of `Cn1ccnc1-c1nc(NCCCO)c2c(-c3ccccc3)c(-c3ccccc3)sc2n1` [drawing 3897], the inhibition at 20 µM on KRas G12D mutant protein, on Rac-1 and at Rho-A was 51 to 75% throughout.

Take `COCCNc1nc(-c2ccccn2)nc2sc(-c3ccccc3)c(-c3ccccn3)c12` [drawing 3938]: the values for the inhibition at 20 µM on KRas G12D mutant protein, at Rac-1 and at Rho-A were 1 to 25%, 1 to 25% and 25 to 50%, respectively.

As to `COCCNc1nc(-c2nccn2C)nc2sc(-c3cccc(OC)c3)c(-c3ccccc3)c12` [drawing 3904], the figures for the inhibition at 20 µM on KRas G12D mutant protein, at Rac-1 and at Rho-A were 25 to 50%, 1 to 25% and 51 to 75%, respectively.

The values are drawn from patent US10940139B2, “Compounds that interact with the Ras superfamily for the treatment of cancers, inflammatory diseases, rasopathies, and fibrotic disease” (Shy Therapeutics LLC, priority 2017, dated 2021).
